In this test the target is T1, chimeric human RORγ-Gal4 receptor (Homo sapiens, UniProt P51449).
T1 sequence (P51449 269-508 limits assumed): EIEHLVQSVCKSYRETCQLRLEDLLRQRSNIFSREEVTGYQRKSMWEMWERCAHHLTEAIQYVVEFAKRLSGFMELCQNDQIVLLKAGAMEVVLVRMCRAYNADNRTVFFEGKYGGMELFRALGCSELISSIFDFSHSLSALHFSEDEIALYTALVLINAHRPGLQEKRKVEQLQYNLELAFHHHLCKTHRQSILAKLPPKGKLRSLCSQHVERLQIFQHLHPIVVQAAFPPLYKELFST
Description: transient transactivation assay (RORγ-Gal4 luciferase reporter). Format: cell-based. To be noted: Cos-7 cells transfected with RORγ-Gal4 and 5Gal4 pGL3 TK Luc reporter; overnight incubation; T0901317 at 10^-5 M as reference; read-out: IC50. For orientation: Reporter assays use an easily measured gene product as a stand-in for the process of interest.
Regarding `Cc1cc(C(F)(F)F)cc2c1cc(C(=O)c1c(Cl)ccc(C(=O)N3CC[C@H](C(=O)O)[C@H](C)C3)c1Cl)n2C` (racemic) [AQ-3], the concentration for half-maximal inhibition (IC50) (usually the point on the concentration scale where inhibition reaches its midpoint) is less than 0.1 µM. For `Cc1cc(C#N)cc2c1cc(Cc1c(Cl)ccc(O[C@H]3CC[C@@H](C(=O)O)C3)c1Cl)n2C` (relative stereo) [Example AG1, cis-3-(2,4-dichloro-3-((6-cyano-1,4-dimethyl-1H-indol-2-yl)methyl)phenoxy)cyclopentanecarboxylic acid] the value was 0.5 to 1 µM.

On to `Cc1cc(C#N)cc2c1cc(Cc1c(Cl)ccc(O[C@H]3CC[C@H](C(=O)O)C3)c1Cl)n2C` (relative stereo) [Example AG, trans-3-(2,4-dichloro-3-((6-cyano-1,4-dimethyl-1H-indol-2-yl)methyl)phenoxy)cyclopentanecarboxylic acid], for which the IC50 was in the range of 0.1 to 0.5 µM. For `COCCN1CCN(C(=O)c2ccc(Cl)c(Cc3cc4c(C)cc(C(F)(F)F)cc4n3C)c2Cl)CC1` [A, (2,4-dichloro-3-((1,4-dimethyl-6-(trifluoromethyl)-1H-indol-2-yl)methyl)phenyl)(4-(2-methoxyethyl)piperazin-1-yl)methanone] the value was less than 0.1 µM.

As to `Cc1cc(C#N)cc2c1cc(Cc1c(Cl)ccc(C(=O)N3CCC(C(C)O)CC3)c1Cl)n2C` (stereo not shown) [AA-1], the IC50 is less than 0.1 µM. For `Cc1cc(C#N)cc2c1cc(Cc1c(Cl)ccc(C(=O)N3CCCC(O)C3)c1Cl)n2C` (stereo not shown) [AA-5] the value was 0.1 to 0.5 µM.

On to `Cc1cc(C#N)cc2c1cc(Cc1c(Cl)ccc(C(=O)N3CCC(N(C)C)CC3)c1Cl)n2C` [AA-6], for which the IC50 lay within 0.1 to 0.5 µM.

As to `Cc1cc(C#N)cc2c1cc(Cc1c(Cl)ccc(C(=O)N3CCC(C(C)(C)CO)CC3)c1Cl)n2C` [AA-8], the IC50 was less than 0.1 µM. Turning to `Cc1cc(C#N)cc2c1cc(Cc1c(Cl)ccc(C(=O)N3CCN(C)C(C)C3)c1Cl)n2C` (stereo not shown) [AA-10], the IC50 is 0.1 to 0.5 µM. On to `Cc1cc(C#N)cc2c1cc(Cc1c(Cl)ccc(C(=O)N3CCN(C(C)C)CC3)c1Cl)n2C` [AA-11], for which the IC50 is less than 0.1 µM.

Turning to `Cc1cc(C#N)cc2c1cc(Cc1c(Cl)ccc(C(=O)N3CCCN(CCO)CC3)c1Cl)n2C` [AA-13], the IC50 was 0.1 to 0.5 µM. Then `Cc1cc(C#N)cc2c1cc(Cc1c(Cl)ccc(C(=O)N3CCC(N(C)C)C3)c1Cl)n2C` (stereo not shown) [AA-14], with 0.1 to 0.5 µM; and `Cc1cc(C#N)cc2c1cc(Cc1c(Cl)ccc(C(=O)N3CC(N4CCCC4)C3)c1Cl)n2C` [AA-16], with 0.1 to 0.5 µM; and `Cc1cc(C#N)cc2c1cc(Cc1c(Cl)ccc(C(=O)N3CCC(CO)C3)c1Cl)n2C` (stereo not shown) [AA-19], with 0.1 to 0.5 µM. As to `Cc1cc(C#N)cc2c1cc(Cc1c(Cl)ccc(C(=O)N3CC(O)C3)c1Cl)n2C` [AA-20], the IC50 is 0.1 to 0.5 µM. For `COC1CN(C(=O)c2ccc(Cl)c(Cc3cc4c(C)cc(C#N)cc4n3C)c2Cl)C1` [AA-21] the value was 0.1 to 0.5 µM; for `Cc1cc(C#N)cc2c1cc(Cc1c(Cl)ccc(C(=O)NC3CCC(O)CC3)c1Cl)n2C` (stereo not shown) [AA-22], 0.1 to 0.5 µM. Then `Cc1cc(C#N)cc2c1cc(Cc1c(Cl)ccc(C(=O)NC3CCOCC3)c1Cl)n2C` [AA-23], with 0.5 to 1 µM; and `Cc1cc(C#N)cc2c1cc(Cc1c(Cl)ccc(C(=O)NC3COC3)c1Cl)n2C` [AA-24], with 0.1 to 0.5 µM; and `Cc1cc(C#N)cc2c1cc(Cc1c(Cl)ccc(C(=O)N3CCC4(CC3)COC4)c1Cl)n2C` [AA-25], with 0.1 to 0.5 µM. For the molecule `Cc1cc(C#N)cc2c1cc(Cc1c(Cl)ccc(C(=O)N3CC4(COC4)C3)c1Cl)n2C` [AA-26], the half-maximal inhibitory concentration (IC50) lay in the range of 0.1 to 0.5 µM.

Regarding `CNC(=O)[C@@H]1CCCN1C(=O)c1ccc(Cl)c(Cc2cc3c(C)cc(C#N)cc3n2C)c1Cl` [AA-32], the IC50 was in the range of 0.1 to 0.5 µM.

Take `Cc1cc(C#N)cc2c1cc(C(=O)c1c(Cl)ccc(C(=O)N3CC(O)C3)c1Cl)n2C` [AN-1]: the IC50 was in the range of 0.5 to 1 µM. For `Cc1cc(C(F)(F)F)cc2c1cc(C(=O)c1c(Cl)ccc(C(=O)N3CCC(C4COC4)CC3)c1Cl)n2C` [AP-6] the value was less than 0.1 µM; for `Cc1cc(C(F)(F)F)cc2c1cc(C(=O)c1c(Cl)ccc(C(=O)N3C[C@@H]4[C@H](C3)[C@H]4C(=O)O)c1Cl)n2C` [AQ-2], 0.1 to 0.5 µM; for `Cc1cc(C(F)(F)F)cc2c1cc(C(=O)c1c(Cl)ccc(C(=O)N3CC[C@H](C(=O)O)[C@H](C)C3)c1Cl)n2C` [AQ-4], less than 0.1 µM.

As to `Cc1cc(C(F)(F)F)cc2c1cc(C(=O)c1c(Cl)ccc(C(=O)N3CC[C@@H](C(=O)O)[C@@H](C)C3)c1Cl)n2C` [AQ-5], the IC50 was less than 0.1 µM. Regarding `Cc1cc(C(F)(F)F)cc2c1cc(Cc1c(Cl)ccc(C(=O)N3CCC(C(=O)O)CC3)c1Cl)n2C` [B, 1-(2,4-dichloro-3-((1,4-dimethyl-6-(trifluoromethyl)-1H-indol-2-yl)methyl)benzoyl)piperidine-4-carboxylic acid], the IC50 was less than 0.1 µM. Then `Cc1cc(C#N)cc2c1cc(Cc1c(Cl)cnc(C(=O)N3CCC(C4COC4)CC3)c1Cl)n2C` [BF-1], with less than 0.1 µM; and `Cc1cc(C#N)cc2c1cc(Cc1c(Cl)cnc(C(=O)N3CCC(O)CC3)c1Cl)n2C` [BF-2], with 0.1 to 0.5 µM; and `Cc1cc(C#N)cc2c1cc(Cc1c(Cl)cnc(C(=O)N3CCN(C4COC4)CC3)c1Cl)n2C` [BF-4], with 0.1 to 0.5 µM. Then `Cc1cc(C(F)(F)F)cc2c1cc(Cc1c(Cl)ncc(C(=O)N3CCC(O)(CCO)CC3)c1Cl)n2C` [BH-2], with 0.1 to 0.5 µM; and `CNC(=O)[C@@H]1CCCN1C(=O)c1ccc(Cl)c(Cc2nc3c(C)cc(C(F)(F)F)cc3n2C)c1Cl` [BJ-1], with 1 to 10 µM; and `Cc1cc(C(F)(F)F)cc2c1nc(Cc1c(Cl)ccc(C(=O)N3CCC4(CCOC4)CC3)c1Cl)n2C` [BJ-8], with less than 0.1 µM. For `Cc1cc(C(F)(F)F)cc2c1nc(Cc1c(Cl)ccc(C(=O)N3CCC(C(C)(C)O)CC3)c1Cl)n2C` [BJ-9] the value was 0.1 to 0.5 µM.

`Cc1cc(C(F)(F)F)cc2c1nc(Cc1c(Cl)ccc(C(=O)N3CCC(C(C)(C)CO)CC3)c1Cl)n2C` [BJ-10]: the IC50 is less than 0.1 µM. For `Cc1cc(C(F)(F)F)cc2c1nc(Cc1c(Cl)ccc(C(=O)N3CCC(C(C)O)CC3)c1Cl)n2C` (stereo not shown) [BJ-12] the value was less than 0.1 µM; for `COCC1CCN(C(=O)c2ccc(Cl)c(Cc3nc4c(C)cc(C(F)(F)F)cc4n3C)c2Cl)CC1` [BJ-13], 0.1 to 0.5 µM. `Cc1cc(C(F)(F)F)cc2c1nc(Cc1c(Cl)ccc(C(=O)N3CCC(CC(C)(C)O)CC3)c1Cl)n2C` [BJ-14]: the IC50 was 0.1 to 0.5 µM. For the molecule `Cc1cc(C(F)(F)F)cc2c1nc(Cc1c(Cl)ccc(C(=O)N3CCC(CCO)CC3)c1Cl)n2C` [BJ-16], the IC50 is 0.1 to 0.5 µM. For `Cc1cc(C(F)(F)F)cc2c1nc(Cc1c(Cl)ccc(C(=O)N3CCC(C4COC4)CC3)c1Cl)n2C` [BJ-17] the value was less than 0.1 µM; for `COCCC1CCN(C(=O)c2ccc(Cl)c(Cc3nc4c(C)cc(C(F)(F)F)cc4n3C)c2Cl)CC1` [BJ-18], less than 0.1 µM. As to `Cc1cc(C(F)(F)F)cc2c1nc(Cc1c(Cl)ccc(C(=O)N3CCC(CC(C)O)CC3)c1Cl)n2C` (stereo not shown) [BJ-19], the IC50 was in the range of 0.1 to 0.5 µM. Then `COC1CCC(NC(=O)c2ccc(Cl)c(Cc3nc4c(C)cc(C(F)(F)F)cc4n3C)c2Cl)CC1` (stereo not shown) [BJ-22], with 0.1 to 0.5 µM; and `Cc1cc(C(F)(F)F)cc2c1nc(Cc1c(Cl)ccc(C(=O)N3CCC4(CC3)COC4)c1Cl)n2C` [BJ-25], with 0.5 to 1 µM; and `Cc1cc(C(F)(F)F)cc2c1nc(Cc1c(Cl)ccc(C(=O)N3CC4(COC4)C3)c1Cl)n2C` [BJ-28], with 1 to 10 µM.

The record behind these values is US10106501B2, “Nuclear receptor modulators” (AbbVie Inc., priority 2015, dated 2018).
